Measured values taken from US6169181A, “Compounds useful to treat retroviral infections” (Pharmacia & Upjohn Company, priority 1998, dated 2001).
“And” between values parts separate entries of the source, which are not always exact repeats. Equal values may be shown once. Read-outs that look alike come from different tables or passages of the source.

What was measured:
[1] = target: T1, HIV-1 protease (Human immunodeficiency virus type 1 group M subtype B, UniProt P04585); test: biochemical
Outline: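 Biotinylated, FITC-labelled peptide substrate cleaved in 0.1 M sodium acetate pH 5.5, 1.0 M NaCl, 0.05% NP-40, room temperature. Filtered labelled product read by fluorescence; nonlinear least-squares fit.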

[2] = target: T1, HIV-1 protease; test: biochemical; conditions: for inhibition at 0.123 µM / inhibition at 0.37 µM / inhibition at 1.1 µM / inhibition at 3.3 µM / inhibition at 10 µM / inhibition at 30 µM: read-out: Protease % Inhib; for PROTEASE % INHIB.: Table II, enzyme HIV-1
Outline: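 A substrate biotinylated at the N-terminal arginine and FITC-labelled at the C-terminal lysine was incubated with HIV-1 protease (10 μl of 0.1 μM) and compound for 1 h in the dark at room temperature. Buffer was 0.1 M sodium acetate pH 5.5, 1.0 M NaCl, 0.05% NP-40. Labelled product was separated from substrate using streptavidin beads and filtration, and the fluorescence gave percent inhibition.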

[3] = read-out: HIV Protease FITC Assay Ki
[4] = Table I, read-out: HIV Protease FITC Assay Ki

| SMILES | Ki [1, 4] | inhibition at 0.123 µM ([2]; Table I, Dose 0.123 μM) [%] | inhibition at 0.37 µM ([2]; Table I, Dose 0.370 μM) [%] | inhibition at 1.1 µM ([2]; Table I, Dose 1.100 μM) [%] | inhibition at 3.3 µM ([2]; Table I, Dose 3.300 μM) [%] | inhibition at 10 µM ([2]; Table I, Dose 10.000 μM) [%] | inhibition at 30 µM ([2]; Table I, Dose 30.000 μM) [%] | also measured |
| --- | --- | --- | --- | --- | --- | --- | --- | --- |
| CCCC1(CCc2ccccc2)CC(O)=C(C(CC)c2cccc(NS(=O)(=O)c3cccc4cccnc34)c2)C(=O)O1 (centres unmarked) [Example 42, N-[3-[1-(4-hydroxy-2-oxo-6-phenethyl-6-propyl-5,6-dihydro-2H-pyran-3-yl)-propyl]-phenyl]-8-quinolinesulfonamide] |  |  |  |  |  |  |  | Ki [1, 3]: 3.1 nM; inhibition at 0.123 µM [2]: 86.2%; inhibition at 0.37 µM [2]: 103%; inhibition at 1.1 µM [2]: 98.3%; inhibition at 3.3 µM [2]: 102%; inhibition at 10 µM [2]: 91.4%; inhibition at 30 µM [2]: 76.1% |
| Cn1cnc(S(=O)(=O)Nc2cccc(C(C3=C(O)CC(CCC4CC4)(CCC4CC4)OC3=O)C(C)(C)C)c2)c1 (centres unmarked) [Example 264, N-[3-(1-[6,6-Bis-(2-cyclopropyl-ethyl)-5,6-dihydro-4-hydroxy-2-oxo-2H-pyran-3-yl]-2,2-dimethyl-propyl)phenyl]-1-methyl-1H-imidazole-4-sulfonamide] | 3.7 nM | 67.2 | 75 | 67.7 | 57.6 | 53.7 | 64.6 |  |
| CCCC1(CCC)CC(O)=C(C(c2cccc(NS(=O)(=O)c3ccc(F)cc3)c2)C2CC2)C(=O)O1 (centres unmarked) [Example 51, 4-Fluoro-N-[3-[1-(4-hydroxy-2-oxo-6,6-dipropyl-5,6-dihydro-2H-pyran-3-yl)-cyclopropylmethyl]-phenyl]-benzenesulfonamide] | 2.66 nM | 98.7 | 104 | 105 | 101 | 95.1 | 79.7 |  |
| CCCC1(CCc2ccccc2)CC(O)=C(C(CC)c2cccc(NS(=O)(=O)c3cn(C)cn3)c2)C(=O)O1 (centres unmarked) [Example 41, N-[3-[1-(4-hydroxy-2-oxo-6-phenethyl-6-propyl-5,6-dihydro-2H-pyran-3-yl)-propyl]-phenyl]-1-methyl-1H-imidazole-4-sulfonamide] |  |  |  |  |  |  |  | Ki [1, 3]: 3.17 nM; inhibition at 0.123 µM [2]: 103%; inhibition at 0.37 µM [2]: 102%; inhibition at 1.1 µM [2]: 104%; inhibition at 3.3 µM [2]: 101%; inhibition at 10 µM [2]: 85.9%; inhibition at 30 µM [2]: 72.8% |
| CC[C@@H](Cc1ccccc1)c1cc(O)c(C(c2cccc(NS(=O)(=O)c3cn(C)cn3)c2)C2CC2)c(=O)o1 (single isomer, unassigned) [Example 139, N-(3-(R or S)-{Cyclopropyl-[6-(1-(S)-ethylphenethyl)-4-hydroxy-2-oxo-2H-pyran-3-yl]-methyl}-phenyl)-1-methyl-1H-imidazole-4-sulfonamide] | 1.89 nM | 98.3 | 101 | 105 | 99.3 | 99.3 | 103 |  |
| CCC(C1=C(O)C2CCCCCC2OC1=O)c1cccc(NS(=O)(=O)c2ccc(C#N)cn2)c1 (centres unmarked) [Example 372, 5-Cyano-N-[3-[1-(2,4a,5,6,7,8,9,9a-octahydro-4-hydroxy-2-oxocyclohepta[b]pyran-3-yl)propyl]phenyl]-2-pyridinesulfonamide] |  |  |  |  |  |  |  | Ki ([1]; Table II, enzyme HIV-1, read-out: FITC KI): 4 nM; PROTEASE % INHIB. ([2]; DOSE 0.123 (unit not given)): 43.52%; PROTEASE % INHIB. ([2]; DOSE 0.370 (unit not given)): 86.68%; PROTEASE % INHIB. ([2]; DOSE 1.100 (unit not given)): 101.52%; PROTEASE % INHIB. ([2]; DOSE 3.300 (unit not given)): 99.56%; PROTEASE % INHIB. ([2]; DOSE 10.000 (unit not given)): 97.81%; PROTEASE % INHIB. ([2]; DOSE 30.000 (unit not given)): 106.18% |
| CCC(CCNS(=O)(=O)c1cn(C)cn1)c1cc(O)c(C(c2cccc(NS(=O)(=O)c3cn(C)cn3)c2)C2CC2)c(=O)o1 (centres unmarked) [Example 107, N-(3-{Cyclopropyl-[6-(1-ethyl-3-{1-methyl-1H-imidazole-4-sulfonylamino}-propyl)-4-hydroxy-2-oxo-2H-pyran-3-yl]-methyl}-phenyl)-1-methyl-1H-imidazole-4-sulfonamide] | 0.89 nM and 0.7 nM | 92.7 | 99.2 | 105 | 103 | 110 | 103 |  |
| CCC(CC1CCCOC1)c1cc(O)c(C(c2cccc(NS(=O)(=O)c3cn(C)cn3)c2)C2CC2)c(=O)o1 (centres unmarked) [Example 145B, N-(3-[Cyclopropyl[4-hydroxy-2-oxo-6-[1-[(tetrahydro-2H-pyran-3-yl)methyl]propyl]-2H-pyran-3-yl]methyl]phenyl]-1-methyl-1H-imidazole-4-sulfonamide] | 1.24 nM | 81.8 | 88.4 | 96.5 | 87.8 | 102 | 84.5 |  |
